Results on three molecules are retold here after US8138184B2, “Isoxazole derivatives and pharmaceutical compositions comprising the same” (Kaohsiung Medical University, priority 2008, dated 2012).

Data set [1] relates to NCI-H460 cells (non-small-cell lung cancer). Kind of data set: Cytotoxicity assay (MTS reduction), NCI-H460. It counts as cell-based, human. Conditions: 3 days, % of DMSO control; for activity at 4 µg/mL / activity at 20 µg/mL: Homo sapiens, NCI-H460, 72 h, read-out: Growth percentage NCI-H460 (Lung). How it is done: (§1) MCF-7 cells (human breast adenocarcinoma), NCI-H460 cells (non-small-cell lung cancer) and SF-268cells (glioblastoma cells) were cultured in a Dulbecco's modified Eagle's medium supplemented with a 10% fetal calf serum and a nonessential amino acid (Life Technologies, Inc.) and maintained at 37° C. in a humidified incubator with 5% CO2.
(§2) Human cancer cells were seeded in 96-well microtiter plates at a density of 6500, 2500 and 7500 cells/well in 100 μl of culture medium for MCF-7, NCI-H460, and SF-268, respectively. […] Cells were treated with test compounds for 3 days. Cell viability was determined by the 5-[3-(carboxymethoxy)-phenyl]-2-(4,5-dimethylthiazolyl)-3-(4-sulfophenyl)tetrazolium salt (MTS) reduction assay. Actinomycin D (10 μM, final concentration) and DMSO (0.1%, final concentration) were used as positive and vehicle controls, respectively. Results were expressed as a % of the DMSO control.
(Formazan colour is commonly taken as a measure of viable cells.)

For data set [2], the system named is Human adipose tissue derived stem cells (hADSCs). In words: Cytotoxicity assay by lactate dehydrogenase (LDH) leakage in hADSCs. The data set is classed as cell-based. Conditions: 10 μM, % of total cell toxicity. The method, then: (§3) Human adipose tissue derived stem cells (hADSCs), which is derived from adipose tissue, were selected an maintained in a keratinocyte SFM medium (Gibco BRL, Gaithersburg, Md.) supplemented with 5% FBS, 100 U/ml of penicillin and streptomycin.
(§4) New synthetic compounds were dissolved in DMSO to a final concentration of 10 mM and stored at −20° C. The concentration used was 10 μM and freshly diluted to the medium with a final concentration of DMSO at 0.1%. Control cultures were treated with the same amount of DMSO as used in the corresponding experiments.
Lactate dehydrogenase (LDH) leakage from cells was measured to quantify the cytotoxicity by using a cytotoxicity detection kit (Roche, Germany) (Crowston, J. G. et al Invest. Ophthalmol. Vis. Sci. 1998, 39, 449). Cells were previously seeded into 48-well plates (4×10^4 cells/well). After a drug treatment, the supernatants and cell layers of the cultures were collected for assay. According to the manufacturer's guidelines for the detection kit, cell layers were lysed with 1% TritonX-100, and cell lysates and supernatants were assayed in a 96-well plate, respectively. Briefly, 100 μL of catalyst solution was added in each assay well for 20 min. Absorbance was measured with an ELISA reader with a 490 nm filter. LDH leakage was shown as relative activity (% of total cell toxicity).

Data set [3] has the same test system. Kind of data set: Osteogenic differentiation and quantification of mineralization (Alizarin red S) in hADSCs. It counts as cell-based. The settings on record: 10 μM. How it is done:
as §3, §4
Osteogenic differentiation was induced by culturing cells in an osteo-induction medium (OIM, 10% FBS, 0.1 μM dexamethasone, 10 mM β-glycerophosphate, and L-Ascorbic 2 phosphate 100 μM in low glucose DMEM) for 7-14 days. The extracellular matrix calcification was estimated by using an Alizarin red S stain (Carl, A. et al Anal. Biochem. 2004, 329, 77). The Alizarin red S-stained mineral was quantified by the osteogenesis quantification kit (CHEMICON®).

In data set [4] the test system is MCF-7 cells (human breast adenocarcinoma). In words: Cytotoxicity assay (MTS reduction), MCF-7. The data set is classed as cell-based. Conditions: 3 days, % of DMSO control; for activity at 4 µg/mL / activity at 20 µg/mL: Homo sapiens, MCF7, 72 h, read-out: Growth percentage MCF7 (Breast). How it is done: as §1, §2
In data set [5] the test system is SF-268 cells (glioblastoma cells). In words: Cytotoxicity assay (MTS reduction), SF-268. The data set is classed as cell-based, human. The settings on record: 3 days, % of DMSO control; for activity at 4 µg/mL / activity at 20 µg/mL: Homo sapiens, SF-268, 72 h, read-out: Growth percentage SF-268 (CNS). How it is done: as §1, §2
Data set [6] is described as follows: Cell viability by MTT assay in hADSCs. The data set is classed as cell-based, human. The settings on record: human, human adipose tissue derived stem cells (hADSCs), % of control. The method, then: as §3, §4
(§5) The MTT assay is a calorimetric assay based on the ability of the viable cells to reduce a soluble yellow tetrazolium salt to blue formazan crystals (Carmichael, J. et. el. Cancer Research 1987, 47, 936). After compound treatments, 350 μL of MTT solution ([…] in PBS) were added to each well and incubated for 4 hrs. DMSO was then added for another 0.5 hrs to thoroughly dissolve the dark blue crystals. The absorbance at 570 nm was measured with an ELISA reader. Inhibition of mitochondrial metabolism was shown as relative activity (% of control).

Data set [7] has as its system Human adipose tissue derived stem cells (hADSCs). Kind of data set: Cell viability by MTT assay in hADSCs. It counts as cell-based. Conditions: 10 μM, % of control. The method, then:
as §3, §4, §5

The term viability denotes the share of living cells, or the viability signal relative to a control. For the molecule `COc1ccc(-c2cnoc2-c2ccc(OC(C)C)cc2OCCCCN2CCCC2)cc1` [5a, 5-{4-Isopropoxy-2-[4-(pyrrolidin-1-yl)butoxy]phenyl}-4-(4-methoxyphenyl)isoxazole], the activity at 4 µg/mL in data set [1] (4 μg/mL) came to 81%; in data set [4] (4 μg/mL), 83%; in data set [5] (4 μg/mL) it was 121%. In addition, the activity at 20 µg/mL was 1% in data set [1] (20 μg/mL), 1% in data set [4] (20 μg/mL) and 2% in data set [5] (20 μg/mL). In data set [2], the “Cell cytotoxicity (3 days, LDH)” value was found to be 0%. In data set [3], the “osteoblast activity (mineralization in hADSCs), in words” value is given as “more active than ipriflavone”. For the same molecule, the viability at 3 days, 10 µM in data set [6] stood at 71%.

On to “2-[4-(3,4-Dimethoxyphenyl)isoxazol-5-yl]-5-([6-(piperidin-1-yl)hexyloxy]phenol [8b]”, for which the “Growth percentage NCI-H460 (Lung)” value is on record as 89% in data set [1] (4 μg/mL) and 2% in data set [1] (20 μg/mL). Moreover, in data set [2], the “Cell cytotoxicity (3 days, LDH)” value is 41%. The “Mineralization (10 days)” value in data set [3] (10 days) is on record as 285%. Moreover, the “Growth percentage MCF7 (Breast)” value in data set [4] (4 μg/mL) stood at 93%; in data set [4] (20 μg/mL), 4%. The “Growth percentage SF-268 (CNS)” value came to 116% in data set [5] (4 μg/mL) and 15% in data set [5] (20 μg/mL). Also, in data set [7], the “Cell viability (3 days, MTT)” value stood at 11%.

For the molecule `COc1ccc(-c2cnoc2-c2ccc(OC(C)C)cc2OCCCCCCN2CCCC2)cc1` [5e, 5-{4-Isopropoxy-2-[6-(pyrrolidin-1-yl)hexyloxy]phenyl}-4-(4-methoxyphenyl)isoxazole], the values for the activity at 4 µg/mL in data set [1] (4 μg/mL), in data set [4] (4 μg/mL) and in data set [5] (4 μg/mL) were 22%, 55% and 38%, respectively. The activity at 20 µg/mL in data set [1] (20 μg/mL) turned out to be 1%; in data set [4] (20 μg/mL) it was 0%; in data set [5] (20 μg/mL), 1%. Moreover, the “Cell cytotoxicity (3 days, LDH)” value in data set [2] was 0%. Further, the “osteoblast activity (mineralization in hADSCs), in words” value in data set [3] is “more active than ipriflavone”. Also, the viability at 3 days, 10 µM in data set [6] was 64%.
